Data: patent publication US20090012088A1 (priority 2005, published 2009)
Entries after “also recorded” stand apart in the source; their conditions may differ.

Legend:
[1] = test system: poly(ADP-ribose) in PC-12 cells; assay: Intracellular PAR staining in H2O2-treated PC-12 cells (flow cytometry); assay type: cell-based; conditions: PC-12 cells pre-treated with PIP-1, then H2O2
Method: Screening of the 22,000 compounds in this manner produced 38 primary hits (FIG. 15A—“initial hits”). These 38 compounds are assessed for their ability to inhibit PARP-1 and PARG using standard in vitro assays. (12, 29) 20 compounds are PARP-1 inhibitors, and 3 are PARG inhibitors (FIG. 15A). Compounds 1 and 2 inhibit PARG quite well, with IC50 values of ˜0.4-0.5 μM (FIG. 15C). […] Subsequent efforts therefore focused on compound 1, which is named PIP-1 (pyridazinone inhibitor of PARG), and derivatives thereof. […] To determine if PIP-1 could induce the build-up of PAR in cell culture, PC-12 cells were treated with a range of PIP-1 concentrations; H2O2 was then added to induce PARP-1 activity and the cellular PAR levels were quantitated with an anti-PAR antibody and flow cytometry.
Intracellular PAR staining: 1 mL of 10^6 cells/mL PC-12 cells is added to the wells of a 24-well plate. Varying concentrations of PIP-1 or DMSO as a control are added to the cells and incubated for 2 h at 37° C. H2O2 is added to the cells to approximately […]. After a 2 h incubation at 37° C., the cells are thoroughly washed in PBS and fixed overnight in 4° C. ethanol. The cells are again washed in PBS and stained with a 1:50 dilution of anti-poly(ADP-ribose) antibody for 4 h at 4° C. […] After washing with PBS, the fluorescent intensity of each cell is determined by flow cytometry.

[2] = test system: differentiated PC-12 and SK-N-SH cells; assay: Cellular toxicity in differentiated PC-12 and SK-N-SH cells; assay type: cell-based; conditions: at concentrations up to 100 μM
Method: In vivo MPTP is metabolized to its active form, the 1-methyl-4-phenylpyridinium ion (MPP^+), and MPP^+ has proven very useful in a variety of cell culture models of PD. To determine the protective effect of PIP-1 on cells subjected to MPP^+ insult, PC-12 (differentiated as above) and SK-N-SH (differentiated with retinoic acid for 12 days) cells are treated with 10 μM MPP^+ and a range of PIP-1 concentrations, and cell death is assessed by propidium iodide staining and flow cytometry. […] As shown in FIGS. 20A and 20B, PIP-1 also protects differentiated PC-12 and SK-N-SH cells from rotenone-induced toxicity as well.
Protection of Rotenone and MPP^+ induced toxicity in PC-12 and SK-N-SH cells: SK-N-SH and PC-12 cells are neuronally differentiated as described above. 10 μM rotenone, 10 μM MPP^+ and various concentrations of PIP-1 or its derivatives are added to the cells and incubated for 72 h. The cells are then washed in PBS and the viability is determined by adding propidium iodide to 1 μg/mL and measuring the fluorescent intensity of each cell by flow cytometry.

## CN(C)c1cnn(-c2ccccc2)c(=O)c1N [PIP-1, 4-Amino-5-dimethylamino-2-phenyl-2H-pyridazin-3-one]
[1]
  Accumulation of intracellular PAR: dose-dependent accumulation of intracellular PAR
[2]
  Cellular toxicity / adverse effects on differentiated neurons: no adverse effects; also recorded: no cellular toxicity
